Read-outs that look alike come from different tables or passages of the source.
Columns and labels:
α-Mannosidase = molecular target: T1, α-Mannosidase (Canavalia ensiformis, UniProt C0HJB3); test: glycosidase inhibition assay, jack bean α-mannosidase; assay type: biochemical
T1 construct: purchased Sigma-Aldrich Chemical Co
T1 sequence (C0HJB3 1-981): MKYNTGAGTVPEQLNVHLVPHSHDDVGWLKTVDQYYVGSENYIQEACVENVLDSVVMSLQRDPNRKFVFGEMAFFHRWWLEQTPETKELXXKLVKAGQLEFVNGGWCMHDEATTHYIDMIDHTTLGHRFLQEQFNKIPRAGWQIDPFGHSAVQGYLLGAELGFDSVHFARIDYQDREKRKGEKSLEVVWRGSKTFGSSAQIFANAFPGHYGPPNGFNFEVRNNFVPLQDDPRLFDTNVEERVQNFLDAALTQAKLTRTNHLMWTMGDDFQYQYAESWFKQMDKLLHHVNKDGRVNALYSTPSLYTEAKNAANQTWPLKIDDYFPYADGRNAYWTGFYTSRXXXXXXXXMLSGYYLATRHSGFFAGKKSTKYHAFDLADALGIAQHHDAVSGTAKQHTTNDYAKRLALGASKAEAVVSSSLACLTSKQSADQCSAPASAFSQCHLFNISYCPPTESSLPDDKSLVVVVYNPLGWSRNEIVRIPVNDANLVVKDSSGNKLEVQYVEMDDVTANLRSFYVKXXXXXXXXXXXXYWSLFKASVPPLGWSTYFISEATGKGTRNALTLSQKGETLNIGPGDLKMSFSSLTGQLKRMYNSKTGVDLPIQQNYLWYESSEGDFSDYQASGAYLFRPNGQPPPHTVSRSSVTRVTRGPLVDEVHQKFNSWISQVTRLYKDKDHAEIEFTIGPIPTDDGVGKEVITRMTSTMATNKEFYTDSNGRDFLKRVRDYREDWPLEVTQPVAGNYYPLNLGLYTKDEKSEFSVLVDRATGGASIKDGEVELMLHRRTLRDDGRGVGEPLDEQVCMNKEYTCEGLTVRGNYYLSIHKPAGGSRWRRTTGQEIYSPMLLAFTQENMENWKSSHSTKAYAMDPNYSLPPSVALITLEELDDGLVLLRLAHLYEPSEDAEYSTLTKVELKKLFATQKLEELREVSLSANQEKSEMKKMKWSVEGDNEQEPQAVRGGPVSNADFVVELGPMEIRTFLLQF
Experimental: (§1) With rat intestinal maltase as an exception, other enzymes were purchased from Sigma-Aldrich Chemical Co. (St. Louis, Mo. USA). Brush border membranes prepared from rat small intestine according to the method of Kessler et al. were assayed at pH 6.8 for rat intestinal maltase using maltose. The released D-glucose was determined colorimetrically using the Glucose CII-test Wako (Wako Pure Chemical Ind.; Osaka, Japan). Other glycosidase activities were determined using an appropriate p-nitrophenyl glycoside as substrate in a buffer solution at the optimal pH value of each enzyme. The reaction was stopped by adding 400 mM Na2CO3. The released p-nitrophenol was measured spectrometrically at 400 nm.

β-Galactosidase [1] = test: glycosidase inhibition assay, bovine liver β-galactosidase; assay type: biochemical
Experimental: as §1

α-L-Fucosidase = molecular target: T2, α-L-Fucosidase (Bos taurus, UniProt Q2KIM0); test: glycosidase inhibition assay, bovine kidney α-L-fucosidase; assay type: biochemical
T2 construct: purchased Sigma-Aldrich Chemical Co; host or cells: bovine kidney
T2 sequence (Q2KIM0 23-468): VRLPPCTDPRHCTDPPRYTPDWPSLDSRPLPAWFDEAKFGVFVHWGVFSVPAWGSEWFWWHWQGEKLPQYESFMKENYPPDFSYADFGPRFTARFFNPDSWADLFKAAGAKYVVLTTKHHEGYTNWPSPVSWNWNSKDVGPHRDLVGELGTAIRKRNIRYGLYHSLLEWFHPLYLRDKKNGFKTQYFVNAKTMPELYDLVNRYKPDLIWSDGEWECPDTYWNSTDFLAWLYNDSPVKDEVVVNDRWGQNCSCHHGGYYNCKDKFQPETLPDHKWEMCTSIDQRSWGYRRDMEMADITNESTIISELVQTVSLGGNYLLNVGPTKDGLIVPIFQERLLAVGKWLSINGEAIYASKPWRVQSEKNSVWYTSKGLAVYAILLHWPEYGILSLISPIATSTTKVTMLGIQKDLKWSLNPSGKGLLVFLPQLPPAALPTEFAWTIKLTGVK
Experimental: as §1

Rat intestinal maltase = test: rat intestinal maltase inhibition (brush border membranes, maltose); assay type: biochemical; settings: for inhibition %: at 100 μM
Experimental: as §1

α-Glucosidase = molecular target: T3, α-Glucosidase (Oryza sativa subsp. japonica, UniProt Q653V7); test: glycosidase inhibition assay, rice α-glucosidase; assay type: biochemical; settings: for inhibition at 100 µM: α-Glucosidase, Rice
T3 construct: purchased Sigma-Aldrich Chemical Co
T3 sequence (Q653V7 34-885): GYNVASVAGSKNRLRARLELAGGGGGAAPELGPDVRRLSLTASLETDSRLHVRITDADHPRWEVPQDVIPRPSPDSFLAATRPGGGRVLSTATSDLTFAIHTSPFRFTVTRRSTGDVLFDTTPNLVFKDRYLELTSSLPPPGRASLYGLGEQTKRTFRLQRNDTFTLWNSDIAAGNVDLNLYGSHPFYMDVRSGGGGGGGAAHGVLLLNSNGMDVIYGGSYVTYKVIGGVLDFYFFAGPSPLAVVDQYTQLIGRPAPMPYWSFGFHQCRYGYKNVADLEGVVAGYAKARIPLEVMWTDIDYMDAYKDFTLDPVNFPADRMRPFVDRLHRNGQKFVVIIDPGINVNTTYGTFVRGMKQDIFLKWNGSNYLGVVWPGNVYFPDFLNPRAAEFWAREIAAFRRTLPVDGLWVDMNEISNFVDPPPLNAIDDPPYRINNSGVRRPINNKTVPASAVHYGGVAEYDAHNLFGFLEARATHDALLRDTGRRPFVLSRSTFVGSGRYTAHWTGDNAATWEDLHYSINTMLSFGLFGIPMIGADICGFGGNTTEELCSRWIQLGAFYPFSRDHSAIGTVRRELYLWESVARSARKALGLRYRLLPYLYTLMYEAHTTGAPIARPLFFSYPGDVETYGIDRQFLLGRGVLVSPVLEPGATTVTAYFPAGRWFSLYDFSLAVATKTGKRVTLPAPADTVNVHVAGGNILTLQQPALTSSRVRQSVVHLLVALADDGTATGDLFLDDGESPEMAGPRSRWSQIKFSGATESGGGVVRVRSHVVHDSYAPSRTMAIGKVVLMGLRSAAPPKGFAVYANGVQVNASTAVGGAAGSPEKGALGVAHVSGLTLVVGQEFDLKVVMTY
Experimental: as §1

Amyloglucosidase = molecular target: T4, Amyloglucosidase (Aspergillus niger, UniProt P69328); test: glycosidase inhibition assay, A. niger amyloglucosidase; assay type: biochemical
T4 construct: purchased Sigma-Aldrich Chemical Co
T4 sequence (P69328 25-640): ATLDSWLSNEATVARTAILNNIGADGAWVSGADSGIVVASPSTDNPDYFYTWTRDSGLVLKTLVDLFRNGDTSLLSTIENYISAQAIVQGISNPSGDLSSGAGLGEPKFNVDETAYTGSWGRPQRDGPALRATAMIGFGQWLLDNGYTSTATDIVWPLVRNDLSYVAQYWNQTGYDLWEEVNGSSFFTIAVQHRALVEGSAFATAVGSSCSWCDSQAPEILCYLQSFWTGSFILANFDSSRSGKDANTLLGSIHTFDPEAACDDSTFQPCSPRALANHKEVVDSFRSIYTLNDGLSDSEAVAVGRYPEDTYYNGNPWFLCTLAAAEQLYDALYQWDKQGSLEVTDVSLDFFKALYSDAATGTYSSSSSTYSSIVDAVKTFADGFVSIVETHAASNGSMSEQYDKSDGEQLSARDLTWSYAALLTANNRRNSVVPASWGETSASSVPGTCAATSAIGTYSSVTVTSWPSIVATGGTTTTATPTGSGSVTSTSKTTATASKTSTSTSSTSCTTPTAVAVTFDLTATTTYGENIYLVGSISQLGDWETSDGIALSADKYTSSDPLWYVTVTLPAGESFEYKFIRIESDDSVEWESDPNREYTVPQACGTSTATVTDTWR
Experimental: as §1

β-Mannosidase = test: glycosidase inhibition assay, snail β-mannosidase; assay type: biochemical; settings: for inhibition %: at 100 μM
Experimental: as §1

β-Galactosidase [2] = settings: β-galactosidase from bovine liver; natural product isolated by Kusano’s group; cited from earlier work
β-Glucosidase = molecular target: T5, β-Glucosidase (Bos taurus, UniProt F1MNT6); test: glycosidase inhibition assay, bovine liver β-glucosidase; assay type: biochemical
T5 sequence (F1MNT6 1-469): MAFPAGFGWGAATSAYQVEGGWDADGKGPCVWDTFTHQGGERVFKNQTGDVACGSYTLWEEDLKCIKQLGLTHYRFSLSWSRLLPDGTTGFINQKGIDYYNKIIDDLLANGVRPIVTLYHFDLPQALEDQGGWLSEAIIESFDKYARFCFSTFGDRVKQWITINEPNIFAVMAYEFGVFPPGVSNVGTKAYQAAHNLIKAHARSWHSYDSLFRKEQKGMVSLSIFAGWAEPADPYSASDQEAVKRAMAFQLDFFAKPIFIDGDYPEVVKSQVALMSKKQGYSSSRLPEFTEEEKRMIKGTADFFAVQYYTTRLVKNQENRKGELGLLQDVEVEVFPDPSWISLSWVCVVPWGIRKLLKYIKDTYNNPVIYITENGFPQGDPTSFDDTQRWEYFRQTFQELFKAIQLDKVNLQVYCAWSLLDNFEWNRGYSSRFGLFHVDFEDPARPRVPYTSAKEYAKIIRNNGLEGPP
Experimental: as §1

SMILES	IC50 (α-Mannosidase) [µM]	inhibition at 100 µM (α-Mannosidase) [%]	IC50 (β-Galactosidase [1]) [µM]	IC50 (α-L-Fucosidase) [µM]	inhibition at 100 µM (α-L-Fucosidase) [%]	IC50 (Rat intestinal maltase) [µM]	IC50 (α-Glucosidase) [µM]	IC50 (Amyloglucosidase) [µM]	inhibition at 100 µM (Amyloglucosidase) [%]	IC50 (β-Mannosidase) [µM]	inhibition % (β-Mannosidase) [%]	inhibition % (Rat intestinal maltase) [%]	inhibition at 100 µM (α-Glucosidase) [%]	IC50 (β-Galactosidase [2]) [µM]	inhibition at 100 µM (β-Glucosidase) [%]
OCCCC(O)CCCCCCCCCC1NC(CO)C(O)C1O [2,10-di-epi-3, (2S,3R,4R,5R)-2-hydroxymethyl-3,4-dihydroxyl-5-((10S)-10,13-(dihydroxyl)dec-1-yl) pyrrolidine]	> 100	0.32	13	> 100	10.8	1.4	12	> 100	6.8	> 100	0	–	–	–	–
OCCC[C@@H](O)CCCCCCCCC[C@H]1N[C@@H](CO)[C@@H](O)[C@@H]1O [2-epi-3, (2S,3R,4R,5R)-2-hydroxymethyl-3,4-dihydroxyl-5-((10R)-10,13-(dihydroxyl)dec-1-yl) pyrrolidine]	> 100	0	7.4	> 100	4.3	> 100	> 100	> 100	3.8	> 100	0	16.8	5.6	–	–
OCCC[C@H](O)CCCCCCCCC[C@H]1N[C@H](CO)[C@@H](O)[C@@H]1O [10’-epi-3, (2R,3R,4R,5R)-2-hydroxymethyl-3,4-dihydroxyl-5-((10S)-10,13-(dihydroxyl)dec-1-yl) pyrrolidine]	> 100	0	0.2	> 100	0	> 100	> 100	> 100	36.5	> 100	0	26.4	0	–	–
OCCC[C@@H](O)CCCCCCCCC[C@H]1N[C@H](CO)[C@@H](O)[C@@H]1O [compound 3, (2R,3R,4R,5R)-2-hydroxymethyl-3,4-dihydroxyl-5-((10R)-10,13-(dihydroxyl)dec-1-yl)pyrrolidine]	> 100	2.5	2.3	> 100	0	> 100	> 100	> 100	3.8	> 100	1.7	0	0	8.1	–
OCCC[C@@H](O)CCCCCCCCC[C@@H]1N[C@@H](CO)[C@@H](O)[C@H]1O [ent-3,10-di-epi-3]	> 100	0	31	98	–	84	> 100	> 100	0	> 100	2.3	–	9.5	–	–
OCCC[C@H](O)CCCCCCCCC[C@@H]1N[C@@H](CO)[C@H](O)[C@H]1O [ent-3, (2S,3S,4S,5S)-2-hydroxymethyl-3,4-dihydroxyl-5-((10S)-10,13-(dihydroxyl)dec-1-yl) pyrrolidine]	> 100	2.2	50	> 100	0	0.29	1.2	> 100	0	> 100	0	–	–	–	46.5
OCCC[C@H](O)CCCCCCCCC[C@@H]1N[C@@H](CO)[C@@H](O)[C@H]1O [ent-3-epi-3, (2S,3R,4S,5S)-2-hydroxymethyl-3,4-dihydroxyl-5-((10S)-10,13-(dihydroxyl)dec-1-yl) pyrrolidine]	> 100	1.3	41	50	–	42	> 100	> 100	0	> 100	0	–	23	–	–
OCCC[C@@H](O)CCCCCCCCC[C@@H]1N[C@@H](CO)[C@H](O)[C@H]1O [ent-10’-epi-3]	> 100	1.8	9	> 100	6.1	–	1.3	> 100	6.1	> 100	2.0	–	–	–	–
